# Experimental data published in patent US20050020993A1, “Administration of therapeutic or diagnostic agents using interlabial pad” (priority 2001, published 2005).
# Experiment: circulating plasma concentration of estradiol from an ILP system in HRT
# Type: in vivo
# Settings: ILP (interlabial pad) system releasing 100 mg/day of estradiol as its 3-acetate ester; hormone replacement therapy
# Excerpt: In one embodiment, a kit is provided for administering the medication from the drug delivery device. The kit includes an interlabial pad, and a package such as a plastic vial or a plastic or foil container, for packaging the interlabial pad. The kit can also include directions for the use of the pad. The pad can contain a unit dose of the medication, for example an anti-infective, such as gynelotrimin. Another example is the delivery of estradiol to treat vaginal atrophy or for hormone replacement therapy (HRT). In HRT, and ILP system releasing […] of estradiol as its 3-acetate ester maintains a circulating plasma concentration of 300 pmol/L of the drug, which is within the clinically desirable range for HRT.
structure (smiles),measurement,value
C[C@]12CC[C@@H]3c4ccc(O)cc4CC[C@H]3[C@@H]1CC[C@@H]2O [estradiol],circulating plasma concentration,300 pmol/L
